Measured values taken from article PMC8370991, “Structural basis for the inhibition of HTLV-1 integration inferred from cryo-EM deltaretroviral intasome structures” (Nature Communications, 2021).
Where two headings read alike, the source gives them in different places.

Assays:
[1] = test system: HTLV-1; assay: MT-2-Jurkat cell-to-cell HTLV-1 infection, proviral load by qPCR; type: cell-based
Description: Six of the most promising compounds were selected for assessment of their efficacy in inhibiting HTLV-1 viral infection. To this end, we employed an MT-2-Jurkat co-culture relying on cell-to-cell-based HTLV-1 transmission, which we successfully used in a previous study. In this assay format, the infection of Jurkat cells is measured via real-time quantitative PCR (qPCR) determination of the proviral load (PVL). […] A block in the integration reaction was confirmed by Alu-qPCR experiments (Supplementary Fig. 6). […] We suspect this is owing to a more efficient uptake of BIC than RAL by Jurkat T cells.
MT-2 and E6.1 Jurkat T-cell lines (ATCC) were used for the experiments. The cells were cultured at 37 °C with 5% CO2 and maintained in Roswell Park Memorial Institute (RPMI) media supplemented with 10% fetal bovine serum (FBS), 100 U penicillin, 100 μg/mL streptomycin and 0.25 μg/mL fungizone.
The HTLV-1 cell-to-cell infection was performed as previously described; Jurkat T cells were counted and diluted in complete RPMI to a final concentration of 0.25 × 10^6 cells/ml and pre-treated with INSTI drugs (final concentration ranging from 0.2 pM to 2 μM) or DMSO as a control for 24 h. MT-2 cells were resuspended in RPMI at a concentration of 2 × 10^6 cells/ml and subjected to a nonlethal γ-radiation dose of 400 Gy. Cells were resuspended at a concentration of 2 × 10^6 cells/ml in serum-free RPMI supplemented with the corresponding INSTI drug. Co-culture of 0.5 × 10^6 for each cell line was carried out for 16 h, after which cells were washed in PBS and resuspended in 1 ml of depletion buffer (PBS, 0.1% FBS and 2 mM EGTA). MT-2 cells were depleted from the culture by means of anti-CD25 magnetic beads (DynabeadsTM CD25, Thermo Fisher). Depletion efficiency was confirmed via flow cytometry as described previously. Jurkat cells were cultured for 2 weeks in complete RPMI supplemented with the drugs and genomic DNA was extracted (DNeasy kit, Qiagen) and stored at −20 °C for subsequent analysis. All the experiments were done in triplicate.
The PVL was measured as previously described[9],[53],[54]. Jurkat genomic DNA was quantified and diluted to a concentration of 5 ng/μL. Real-time qPCR analysis were conducted on 20 ng of gDNA to measure the level of HTLV-1 tax and gapdh genes (Supplementary Table 5). For the standard curve, the gDNA from an HTLV-1 naturally infected T-cell clone (clone 11.50, courtesy of professor Charles Bangham), which has one copy of tax and two of gapdh, was used. The integrated provirus copy number was calculated as follows: (tax copy numbers)/(2×gapdh copy number)[53], and normalised to the DMSO-treated control which was set to 100%. The PVL data were fitted to a dose–response curve in Prism 7 and the EC50 was calculated. Alu-PCR was performed as previously described in ref. [55]. In brief, the first PCR reaction was done with Phusion polymerase starting from 80 ng of gDNA using the ALU-specific primers (Alu-F/Gag-R). The nested PCR was run diluting the amplificated product 1:50. The reaction was done as a qPCR using Gag-specific primers (Gag-R/Gag-F) and the Luna SYBR dye reaction mix (New England Biolabs). The integrated provirus copy numbers were normalised to GAPDH and Jurkat cells treated with DMSO and infected with HTLV-1 were set to 100%. Experiments were done in triplicate.

[2] = biological target: T1, recombinant HTLV-1 IN (Human T-cell leukemia virus 1, UniProt P03362); assay: In vitro integration strand transfer assay with HTLV-1 IN; type: biochemical; conditions: for HTLV-1 IN strand transfer activity (No drug = 100): INSTI at 634 nM
T1 construct: made in house
T1 sequence (P03362 1168-1462): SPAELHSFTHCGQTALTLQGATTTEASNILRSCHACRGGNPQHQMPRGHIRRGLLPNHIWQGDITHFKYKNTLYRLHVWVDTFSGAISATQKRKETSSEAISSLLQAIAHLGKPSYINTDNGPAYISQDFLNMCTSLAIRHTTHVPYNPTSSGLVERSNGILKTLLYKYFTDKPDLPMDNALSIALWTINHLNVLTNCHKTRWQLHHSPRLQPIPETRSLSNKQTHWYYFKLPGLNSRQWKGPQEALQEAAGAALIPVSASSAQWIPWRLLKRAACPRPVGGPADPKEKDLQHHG
Procedure, shortened: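 Recombinant HTLV-1 IN (4 μg) with annealed 3′-processed LTR donor DNA (0.53 μM) preincubated 15 min RT with compound (screen at 634 nM) in PIPES pH 6.0, NaCl, MgCl2, ZnCl2, DTT; supercoiled plasmid target added, 1 h 37 °C. Concerted integration product quantified by agarose-gel densitometry; IC50 from dose–response fits, triplicate.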

[3] = HTLV-1 infection of Jurkat T cells
[4] = Replicate 1, read-out: HTLV-1 IN strand transfer IC50
[5] = Replicate 2, read-out: HTLV-1 IN strand transfer IC50
[6] = Replicate 3, read-out: HTLV-1 IN strand transfer IC50
[7] = integrase strand-transfer drug titration, n = 3, read-out: HTLV-1 IC50 ± stdev
[8] = MT-2-Jurkat cell-to-cell infection, proviral load, n = 3, read-out: HTLV-1 EC50 ± stdev
[9] = Replicate 1, read-out: HTLV-1 infection EC50
[10] = Replicate 2, read-out: HTLV-1 infection EC50
[11] = Replicate 3, read-out: HTLV-1 infection EC50

SMILES	improvement in EC50 compared with RAL [1, 3]	EC50 ([1]; Primate T-lymphotropic virus 1, read-out: HTLV-1 EC50 ± stdev, MT-2-Jurkat cell-to-cell infection, proviral load, n = 3) [nM]	EC50 ([1]; Primate T-lymphotropic virus 1, read-out: HTLV-1 infection EC50, Replicate 1) [nM]	EC50 ([1]; Primate T-lymphotropic virus 1, read-out: HTLV-1 infection EC50, Replicate 2) [nM]	EC50 ([1]; Primate T-lymphotropic virus 1, read-out: HTLV-1 infection EC50, Replicate 3) [nM]	HTLV-1 IN strand transfer activity (No drug = 100) ([2]; Replicate 1) [%]	HTLV-1 IN strand transfer activity (No drug = 100) ([2]; Replicate 2) [%]	HTLV-1 IN strand transfer activity (No drug = 100) ([2]; Replicate 3) [%]	IC50 [2, 4] [nM]	IC50 [2, 5] [nM]	IC50 [2, 6] [nM]	IC50 [2, 7] [nM]	EC50 [1, 8] [nM]	EC50 [1, 9] [nM]	EC50 [1, 10] [nM]	EC50 [1, 11] [nM]	lower activity in blocking HTLV-1 infection compared with RAL [1, 3]	inhibition of HTLV-1 IN in the screen compared with RAL ([2]; each compound at 634 nM)
CN(C)C(=O)CCc1cnc2c(c1)c(N)c(C(=O)NCc1ccc(F)cc1F)c(=O)n2O [XZ450, 4-amino-N-(2,4-difluorobenzyl)-6-(3-(dimethylamino)-3-oxopropyl)-1-hydroxy-2-oxo-1,2-dihydro-1,8-naphthyridine-3-carboxamide]	~2.5- to fivefold and two- to fivefold	1.67 ± 1.52	2.34	1.89	1.25	10.2814	19.561	9.5729	115	180	76	120 ± 36.1	–	–	–	–	–	–
Nc1c(C(=O)NCc2ccc(F)cc2F)c(=O)n(O)c2ncc(CCS(=O)(=O)c3ccccc3)cc12 [XZ446, 4-amino-N-(2,4-difluorobenzyl)-1-hydroxy-2-oxo-6-(2-(phenylsulfonyl)ethyl)-1,2-dihydro-1,8-naphthyridine-3-carboxamide]	~2.5- to fivefold and two- to fivefold	–	–	–	–	11.4924	20.4545	15.1675	143	85	126	115 ± 9.5	2.57 ± 0.81	3.46	2.16	1.94	–	–
Nc1c(C(=O)NCc2ccc(F)cc2F)c(=O)n(O)c2ncc(CCCO)cc12 [XZ423, 4-amino-N-(2,4-difluorobenzyl)-1-hydroxy-6-(3-hydroxypropyl)-2-oxo-1,2-dihydro-1,8-naphthyridine-3-carboxamide]	–	–	–	–	–	5.722	15.1459	14.6599	144	185	155	155 ± 33.5	4.11 ± 1.52	3.95	3.49	1.75	–	–
Nc1c(C(=O)NCc2ccc(F)cc2F)c(=O)n(O)c2ncc(CCC(=O)NCCO)cc12 [XZ448, 4-amino-N-(2,4-difluorobenzyl)-1-hydroxy-6-(3-((2-hydroxyethyl)amino)-3-oxopropyl)-2-oxo-1,2-dihydro-1,8-naphthyridine-3-carboxamide]	–	–	–	–	–	5.498	23.674	16.1231	99	227	108	132 ± 29.7	139 ± 81	125	146	116	~ 20 fold	–
CC(C)n1c(C(=O)N(C)C)c2c(c(O)c1=O)C(=O)N(Cc1ccc(F)c(Cl)c1)CC2 [XZ236, 6-(3-chloro-4-fluorobenzyl)-4-hydroxy-2-isopropyl-N,N-dimethyl-3,5-dioxo-2,3,5,6,7,8-hexahydro-2,6-naphthyridine-1-carboxamide, reference compound]	–	–	–	–	–	9.7581	22.4849	26.0036	130	504	301	322 ± 121	3.74 ± 1.42	5.38	1.48	4.41	–	outperformed RAL
